Tests used:
Liver carboxylesterase [1] = target: T1, Liver carboxylesterase (Sus scrofa, UniProt Q29550); experiment: Inhibition of pig liver carboxylesterase after 5 mins
T1 sequence (Q29550 whole entry): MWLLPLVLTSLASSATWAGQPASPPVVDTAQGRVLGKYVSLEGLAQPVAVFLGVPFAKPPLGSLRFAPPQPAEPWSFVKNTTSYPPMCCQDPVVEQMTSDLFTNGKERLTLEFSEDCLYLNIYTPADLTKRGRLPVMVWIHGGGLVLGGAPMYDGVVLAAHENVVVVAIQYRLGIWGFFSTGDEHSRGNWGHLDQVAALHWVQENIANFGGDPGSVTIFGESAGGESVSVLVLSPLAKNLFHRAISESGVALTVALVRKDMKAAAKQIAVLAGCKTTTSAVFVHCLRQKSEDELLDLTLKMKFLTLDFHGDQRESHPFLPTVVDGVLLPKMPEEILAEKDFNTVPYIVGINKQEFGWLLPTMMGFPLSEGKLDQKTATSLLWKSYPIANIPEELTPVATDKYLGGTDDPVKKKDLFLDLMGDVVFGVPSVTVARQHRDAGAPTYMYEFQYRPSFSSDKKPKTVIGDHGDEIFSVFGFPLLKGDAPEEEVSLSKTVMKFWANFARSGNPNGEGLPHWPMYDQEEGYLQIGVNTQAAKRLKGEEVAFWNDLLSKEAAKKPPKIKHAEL

[2] = target: T2, Fatty-acid amide hydrolase 1 (Homo sapiens, UniProt O00519); experiment: Inhibition of human recombinant FAAH after 15 mins
T2 sequence (O00519 whole entry): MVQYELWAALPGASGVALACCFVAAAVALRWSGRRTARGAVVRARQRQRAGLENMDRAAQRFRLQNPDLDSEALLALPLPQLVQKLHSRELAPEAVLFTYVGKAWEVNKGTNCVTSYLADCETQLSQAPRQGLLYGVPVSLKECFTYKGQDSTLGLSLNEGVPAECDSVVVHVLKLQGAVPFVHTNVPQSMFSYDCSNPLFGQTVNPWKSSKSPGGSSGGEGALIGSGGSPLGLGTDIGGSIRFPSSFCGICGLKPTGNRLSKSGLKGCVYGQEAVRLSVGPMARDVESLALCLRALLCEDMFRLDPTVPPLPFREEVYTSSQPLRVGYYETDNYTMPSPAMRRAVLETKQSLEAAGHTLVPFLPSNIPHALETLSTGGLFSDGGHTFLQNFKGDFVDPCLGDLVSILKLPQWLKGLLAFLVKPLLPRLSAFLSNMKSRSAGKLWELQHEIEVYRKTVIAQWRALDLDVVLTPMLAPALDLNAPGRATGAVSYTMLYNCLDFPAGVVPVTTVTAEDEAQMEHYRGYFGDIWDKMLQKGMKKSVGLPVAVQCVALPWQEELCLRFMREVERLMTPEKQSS

[3] = target: T2, Fatty-acid amide hydrolase 1; experiment: Inhibition of human recombinant FAAH after 5 mins
Liver carboxylesterase [4] = target: T1, Liver carboxylesterase; experiment: Inhibition of pig liver carboxylesterase after 15 mins
[5] = Inhibition of rabbit liver carboxylesterase after 15 mins; parameters: species or system Oryctolagus cuniculus
[6] = Inhibition of rabbit liver carboxylesterase after 5 mins; parameters: species or system Oryctolagus cuniculus
Liver carboxylesterase 1 [7] = target: T3, Liver carboxylesterase 1 (Homo sapiens, UniProt P23141); experiment: Inhibition of human recombinant carboxylesterase 1 after 5 mins
T3 sequence (P23141 whole entry): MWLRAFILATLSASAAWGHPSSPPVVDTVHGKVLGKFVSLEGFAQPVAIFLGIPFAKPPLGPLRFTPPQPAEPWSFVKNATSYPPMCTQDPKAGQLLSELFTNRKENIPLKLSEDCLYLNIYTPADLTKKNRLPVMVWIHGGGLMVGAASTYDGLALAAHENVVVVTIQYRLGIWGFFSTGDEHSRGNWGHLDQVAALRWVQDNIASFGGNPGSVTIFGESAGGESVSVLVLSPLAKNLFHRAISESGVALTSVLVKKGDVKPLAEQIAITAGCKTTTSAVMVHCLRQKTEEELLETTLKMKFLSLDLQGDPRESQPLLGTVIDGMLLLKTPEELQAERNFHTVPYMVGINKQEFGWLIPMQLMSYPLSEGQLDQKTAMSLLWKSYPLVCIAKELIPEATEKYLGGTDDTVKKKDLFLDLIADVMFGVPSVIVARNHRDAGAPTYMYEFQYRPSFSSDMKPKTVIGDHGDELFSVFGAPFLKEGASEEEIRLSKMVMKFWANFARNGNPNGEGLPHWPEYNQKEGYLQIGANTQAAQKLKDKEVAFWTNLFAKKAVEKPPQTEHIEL

Liver carboxylesterase 1 [8] = target: T3, Liver carboxylesterase 1; experiment: Inhibition of human recombinant carboxylesterase 1 after 15 mins
[9] = Inhibition of Manduca sexta juvenile hormone esterase […] mutant
[10] = target: T4, Juvenile hormone esterase (Manduca sexta, UniProt Q9GPG0); experiment: Inhibition of Manduca sexta juvenile hormone esterase
T4 sequence (Q9GPG0 whole entry): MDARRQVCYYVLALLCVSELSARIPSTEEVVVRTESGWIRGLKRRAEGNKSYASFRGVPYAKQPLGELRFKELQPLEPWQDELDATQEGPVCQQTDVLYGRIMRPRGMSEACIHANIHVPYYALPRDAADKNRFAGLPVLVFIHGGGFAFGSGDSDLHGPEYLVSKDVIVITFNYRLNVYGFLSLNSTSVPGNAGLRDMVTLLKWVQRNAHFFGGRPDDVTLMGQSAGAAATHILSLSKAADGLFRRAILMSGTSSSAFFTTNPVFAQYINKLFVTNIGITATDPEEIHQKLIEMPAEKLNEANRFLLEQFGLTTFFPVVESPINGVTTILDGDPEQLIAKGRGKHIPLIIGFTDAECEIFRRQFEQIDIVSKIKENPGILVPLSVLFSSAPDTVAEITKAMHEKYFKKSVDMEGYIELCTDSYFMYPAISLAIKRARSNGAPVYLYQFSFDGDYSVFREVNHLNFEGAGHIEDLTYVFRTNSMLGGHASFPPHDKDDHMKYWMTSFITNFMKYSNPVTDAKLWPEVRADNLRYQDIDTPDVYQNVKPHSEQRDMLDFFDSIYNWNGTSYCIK

Compound | IC50 (Liver carboxylesterase [1]) [nM] | IC50 [2] [nM] | IC50 [3] [nM] | IC50 (Liver carboxylesterase [4]) [nM] | IC50 [5] [nM] | IC50 [6] [nM] | IC50 (Liver carboxylesterase 1 [7]) [nM] | IC50 (Liver carboxylesterase 1 [8]) [nM] | IC50 [9] [nM] | IC50 [10] [nM]
CCCCCC[S+]([O-])CC(=O)C(F)(F)F (stereo unspecified) | 280 | > 40000 | > 40000 | 33 |  |  |  |  |  | 
CCCCCCS(=O)(=O)CC(=O)C(F)(F)F | 470 | > 40000 | > 40000 | 100 |  |  |  |  |  | 
CCCCCCCCCCCCS(=O)(=O)CC(=O)C(F)(F)F | 37 | 280 | 250 | 46 |  |  |  |  |  | 
CCCCCCCCCC[S+]([O-])CC(=O)C(F)(F)F (stereo unspecified) | 5.5 | 1350 | 760 | 3.2 |  |  |  |  |  | 
CCCCCCCC[S+]([O-])CC(=O)C(F)(F)F (stereo unspecified) | 200 | 13900 | 6500 | 23 | 5 | 16 | 30 | 5.5 |  | 
CCCCCCCCCCSCC(=O)C(F)(F)F | 2.2 | 170 | 120 | 1.3 |  |  |  |  |  | 
CCCCCCCCCCCCSCC(=O)C(F)(F)F | 12 | 89 | 84 | 5.3 |  |  |  |  |  | 
CCCCCCCCCCS(=O)(=O)CC(=O)C(F)(F)F | 63 | 3000 | 2200 | 28 |  |  |  |  |  | 
CCCCCCCCCCCC[S+]([O-])CC(=O)C(F)(F)F (stereo unspecified) | 12 | 600 | 440 | 8.6 |  |  |  |  |  | 
CCCCCCCCS(=O)(=O)CC(=O)C(F)(F)F | 830 | 22500 | 14800 | 460 | 35 | 55 | 18 | 5.4 |  | 
CCCCSCC(=O)C(F)(F)F | 20 | > 40000 | > 40000 | 4.5 |  |  |  |  |  | 
CCCC[S+]([O-])CC(=O)C(F)(F)F (stereo unspecified) | 970 | > 40000 | > 40000 | 270 |  |  |  |  |  | 
CCCCCCSCC(=O)C(F)(F)F | 7.5 | 2500 | 1950 | 1.8 |  |  |  |  |  | 
CCCCCCCCCCC(=O)C(F)(F)F | 25 | 1800 | 1250 | 9.3 | 14 | 42 | 65 | 30 | 1600 | 530
CCCCCCCCSCC(=O)C(F)(F)F | 5.6 | 300 | 230 | 2.4 | 1.9 | 6.7 | 24 | 13 | 330 | 22
O=C(C(=O)c1ccccc1)c1ccccc1 [BENZIL] | 370 | > 40000 | > 40000 | 830 | 29 | 19 |  |  |  | 

Reference: ChEMBL document CHEMBL1141638, “Influence of sulfur oxidation state and steric bulk upon trifluoromethyl ketone (TFK) binding kinetics to carboxylesterases and fatty acid amide hydrolase (FAAH)” (Bioorg Med Chem, 2008)
